Experimental data as given in patent publication US11497751B2, “Modulators of Rho-associated protein kinase” (Redx Pharma PLC, priority 2018, dated 2022).
pIC50: −log10 of the molar value.

The compounds below were run against T1, N-terminal 6His-tagged ROCK2 catalytic domain 11-552 (Homo sapiens, UniProt O75116) (assay: ROCK2 binding activity: ROCK2 inhibition, ADP-Glo Kinase Assay). Conditions: 1.25 nM ROCK2, 100 μM long S6 peptide, 20 μM ATP; 1 hour pre-incubation; read-out: ADP-Glo kinase activity assay ROCK2 Category.
T1 construct: N-terminal 6His-tagged ROCK2 catalytic domain 11-552; 6His (N); purchased Dundee University, UK; host or cells: baculovirus expression system
Assay type: biochemical
Summary of the method: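 1.25 nM baculovirus-expressed ROCK2 pre-incubated 1 h with compound (1% DMSO), then 100 μM long S6 peptide and 20 μM ATP added for 1 h; 50 mM HEPES pH 7.5, 10 mM Mg acetate, 1 mM DTT. ADP-Glo luminescence; IC50 from four-parameter logistic fit.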

T1 sequence (O75116 11-552): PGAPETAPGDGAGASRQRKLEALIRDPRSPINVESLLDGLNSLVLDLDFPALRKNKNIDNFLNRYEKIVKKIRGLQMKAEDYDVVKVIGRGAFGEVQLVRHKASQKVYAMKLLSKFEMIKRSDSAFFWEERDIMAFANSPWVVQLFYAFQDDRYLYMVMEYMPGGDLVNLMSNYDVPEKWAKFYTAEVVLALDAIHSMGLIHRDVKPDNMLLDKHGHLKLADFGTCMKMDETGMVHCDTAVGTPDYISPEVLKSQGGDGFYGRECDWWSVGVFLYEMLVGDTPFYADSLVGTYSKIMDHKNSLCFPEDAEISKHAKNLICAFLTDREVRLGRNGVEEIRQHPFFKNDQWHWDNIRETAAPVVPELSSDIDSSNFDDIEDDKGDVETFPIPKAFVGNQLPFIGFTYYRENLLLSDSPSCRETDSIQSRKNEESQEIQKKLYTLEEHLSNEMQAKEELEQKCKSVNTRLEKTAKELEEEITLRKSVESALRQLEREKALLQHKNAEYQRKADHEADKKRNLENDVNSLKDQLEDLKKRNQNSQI

Cn1nc(-c2cccc(C(=O)NCC(F)(F)F)c2)nc1Nc1ccc2[nH]ncc2c1Cl [Example 268] and CC(C)NC(=O)c1cccc(-c2nc(Nc3ccc4[nH]ncc4c3Cl)n(C)n2)c1 [Example 270] cannot be ordered by pIC50: > 6.52 for the first, > 6.52 for the second.

Cn1nc(-c2cccc(C(=O)NC3CC3)c2)nc1Nc1ccc2[nH]ncc2c1Cl [Example 269] and Cn1nc(-c2ccc(C(=O)NC3CC(O)C3)cc2)nc1Nc1ccc2[nH]ncc2c1C1CC1 (stereo not drawn) [Example 288] cannot be ordered by pIC50: > 6.52 for the first, > 6.52 for the second.

Compared with COc1cc(-c2nc(Nc3cc(Cl)c4[nH]ncc4c3)n(C)n2)ccc1C(=O)NC(C)C [Example 271], COc1cc(-c2nc(Nc3cnc4[nH]ncc4c3)n(C)n2)ccc1C(=O)NC(C)C [Example 331] is lower in pIC50: > 6.52 for the first, 5.52 to 6.52 for the second.

CCNC(=O)c1ccc(-c2nc(Nc3ccc4[nH]ncc4c3C3CC3)n(C)n2)cc1OC [Example 272] and CCNC(=O)c1ccc(-c2nc(Nc3ccc4[nH]ncc4c3C3CC3)n(C)n2)cc1C [Example 277] cannot be ordered by pIC50: > 6.52 for the first, > 6.52 for the second.

COc1cc(-c2nc(Nc3ccc4[nH]ncc4c3C3CC3)n(C)n2)ccc1C(=O)NC(C)C [Example 273] and COc1cc(-c2nc(Nc3ccc4[nH]ncc4c3C3CC3)n(C)n2)ccc1OCC(=O)NC(C)C [Example 274] cannot be ordered by pIC50: > 6.52 for the first, > 6.52 for the second.

First: COc1cc(-c2nc(Nc3ccc4[nH]ncc4c3C3CC3)n(C)n2)ccc1C(=O)NC1CN(C)C1 [Example 275]
Second: COc1cc(-c2nc(Nc3ccc4[nH]ncc4c3C)n(C)n2)ccc1C(=O)NC1CN(C)C1 [Example 328]
The pIC50 of the first is higher: 5.52 to 6.52 for the first, 5.00 to 5.52 for the second.

Cc1cc(-c2nc(Nc3ccc4[nH]ncc4c3C3CC3)n(C)n2)ccc1C(=O)NCC(F)(F)F [Example 276] and COc1cc(-c2nc(Nc3ccc4[nH]ncc4c3C3CC3)n(C)n2)ccc1C(=O)NCC(F)(F)F [Example 280] cannot be ordered by pIC50: > 6.52 for the first, > 6.52 for the second.

COc1cc(C(=O)NCC(F)(F)F)ccc1-c1nc(Nc2ccc3[nH]ncc3c2C2CC2)n(C)n1 [Example 278] and CCNC(=O)c1ccc(-c2nc(Nc3ccc4[nH]ncc4c3C3CC3)n(C)n2)c(OC)c1 [Example 279] cannot be ordered by pIC50: > 6.52 for the first, > 6.52 for the second.

Cn1nc(-c2ccc(C(=O)NC3(C(F)(F)F)CC3)cc2)nc1Nc1ccc2[nH]ncc2c1C1CC1 [Example 281] and Cn1nc(-c2ccc(C(=O)NC3(C)CC3)cc2)nc1Nc1ccc2[nH]ncc2c1C1CC1 [Example 294] cannot be ordered by pIC50: > 6.52 for the first, > 6.52 for the second.

CCC(C)NC(=O)c1ccc(-c2nc(Nc3ccc4[nH]ncc4c3C3CC3)n(C)n2)cc1 (stereo not drawn) [Example 282] and CC(C)NC(=O)c1ccc(-c2nc(Nc3ccc4[nH]ncc4c3C3CC3)n(C)n2)cc1 [Example 295] cannot be ordered by pIC50: > 6.52 for the first, > 6.52 for the second.

First: Cn1nc(-c2ccc(C(=O)NCC3CC3)cc2)nc1Nc1ccc2[nH]ncc2c1C1CC1 [Example 283]
Second: Cn1nc(-c2ccc(C(=O)NCC(N)=O)cc2)nc1Nc1ccc2[nH]ncc2c1C1CC1 [Example 306]
The pIC50 of the first is higher: > 6.52 for the first, 5.52 to 6.52 for the second.

Cn1nc(-c2ccc(C(=O)NCC(F)(F)CO)cc2)nc1Nc1ccc2[nH]ncc2c1C1CC1 [Example 284] and Cn1nc(-c2ccc(C(=O)NCC(C)(F)F)cc2)nc1Nc1ccc2[nH]ncc2c1C1CC1 [Example 338, 4-[5-[(4-cyclopropyl-1H-indazol-5-yl)amino]-1-methyl-1,2,4-triazol-3-yl]-N-(2,2-difluoropropyl)benzamide] cannot be ordered by pIC50: > 6.52 for the first, > 6.52 for the second.

Cn1nc(-c2ccc(C(=O)NCCC(F)(F)F)cc2)nc1Nc1ccc2[nH]ncc2c1C1CC1 [Example 285] and Cn1nc(-c2ccc(C(=O)NC(CO)C(F)(F)F)cc2)nc1Nc1ccc2[nH]ncc2c1C1CC1 (stereo not drawn) [Example 311] cannot be ordered by pIC50: > 6.52 for the first, > 6.52 for the second.

Cn1nc(-c2ccc(C(=O)NCC(C)(C)O)cc2)nc1Nc1ccc2[nH]ncc2c1C1CC1 [Example 286] and Cn1nc(-c2ccc(C(=O)NCC(C)(C)C)cc2)nc1Nc1ccc2[nH]ncc2c1C1CC1 [Example 289] cannot be ordered by pIC50: > 6.52 for the first, > 6.52 for the second.

Cn1nc(-c2ccc(C3=NCC(C)(C)O3)cc2)nc1Nc1ccc2[nH]ncc2c1C1CC1 [Example 287] and Cn1cc(NC(=O)c2ccc(-c3nc(Nc4ccc5[nH]ncc5c4C4CC4)n(C)n3)cc2)cn1 [Example 300] cannot be ordered by pIC50: > 6.52 for the first, > 6.52 for the second.

First: Cn1nc(-c2ccc(C(=O)NCC(C)(C)N)cc2)nc1Nc1ccc2[nH]ncc2c1C1CC1 [Example 291]
Second: COC(=O)CNC(=O)c1ccc(-c2nc(Nc3ccc4[nH]ncc4c3C3CC3)n(C)n2)cc1 [Example 296]
The pIC50 of the first is lower: 5.00 to 5.52 for the first, 5.52 to 6.52 for the second.

Cn1nc(-c2ccc(C(=O)NC3(CO)CC3)cc2)nc1Nc1ccc2[nH]ncc2c1C1CC1 [Example 293] and Cn1nc(-c2ccc(C(=O)NC3(CO)CCCC3)cc2)nc1Nc1ccc2[nH]ncc2c1C1CC1 [Example 308] cannot be ordered by pIC50: > 6.52 for the first, > 6.52 for the second.

Cn1nc(-c2ccc(C(=O)NC3CCC(F)(F)C3)cc2)nc1Nc1ccc2[nH]ncc2c1C1CC1 (stereo not drawn) [Example 298] and CCc1c(Nc2nc(-c3ccc(C(=O)NC4CCC(F)(F)C4)cc3)nn2C)ccc2[nH]ncc12 (stereo not drawn) [Example 319] cannot be ordered by pIC50: > 6.52 for the first, > 6.52 for the second.

Cn1nc(-c2ccc(C(=O)N[C@H]3C[C@@H]3F)cc2)nc1Nc1ccc2[nH]ncc2c1C1CC1 [Example 299] and CC1CC1NC(=O)c1ccc(-c2nc(Nc3ccc4[nH]ncc4c3C3CC3)n(C)n2)cc1 (stereo not drawn) [Example 312] cannot be ordered by pIC50: > 6.52 for the first, > 6.52 for the second.

COC(=O)[C@@H](NC(=O)c1ccc(-c2nc(Nc3ccc4[nH]ncc4c3C3CC3)n(C)n2)cc1)C(C)C [Example 301] and CC[C@@H](C)[C@H](NC(=O)c1ccc(-c2nc(Nc3ccc4[nH]ncc4c3C3CC3)n(C)n2)cc1)C(=O)OC [Example 304] cannot be ordered by pIC50: > 6.52 for the first, > 6.52 for the second.

COC(=O)[C@H](CC(C)C)NC(=O)c1ccc(-c2nc(Nc3ccc4[nH]ncc4c3C3CC3)n(C)n2)cc1 [Example 302] and CC(C)C[C@@H](CO)NC(=O)c1ccc(-c2nc(Nc3ccc4[nH]ncc4c3C3CC3)n(C)n2)cc1 [Example 309] cannot be ordered by pIC50: > 6.52 for the first, > 6.52 for the second.

Cn1nc(-c2ccc(C(=O)NC3CCOC3)cc2)nc1Nc1ccc2[nH]ncc2c1C1CC1 (stereo not drawn) [Example 303] and Cn1nc(-c2ccc(C(=O)NC3CCCCC3O)cc2)nc1Nc1ccc2[nH]ncc2c1C1CC1 (stereo not drawn) [Example 305] cannot be ordered by pIC50: > 6.52 for the first, > 6.52 for the second.

Compared with Cn1nc(-c2ccc(C(=O)N3CCNC(C(F)(F)F)C3)cc2)nc1Nc1ccc2[nH]ncc2c1C1CC1 (stereo not drawn) [Example 307], CCC(CO)NC(=O)c1ccc(-c2nc(Nc3ccc4[nH]ncc4c3C3CC3)n(C)n2)cc1 (stereo not drawn) [Example 310] is higher in pIC50: 5.52 to 6.52 for the first, > 6.52 for the second. The second is the more potent here.

CCNC(=O)c1ccc(-c2nc(Nc3ccc4[nH]ncc4c3CC)n(C)n2)cc1OC [Example 313] and CCc1c(Nc2nc(-c3ccc(C(=O)NC(C)C)c(OC)c3)nn2C)ccc2[nH]ncc12 [Example 314] cannot be ordered by pIC50: > 6.52 for the first, > 6.52 for the second.

First: CCc1c(Nc2nc(-c3ccc(C(=O)NC4CN(C)C4)c(OC)c3)nn2C)ccc2[nH]ncc12 [Example 315]
Second: CCc1c(Nc2nc(-c3ccc(C(=O)NCC(F)(F)F)c(OC)c3)nn2C)ccc2[nH]ncc12 [Example 316]
The pIC50 of the first is lower: 5.52 to 6.52 for the first, > 6.52 for the second. The second is the more potent here.

CCc1c(Nc2nc(-c3ccc(C(=O)NCC(F)F)cc3)nn2C)ccc2[nH]ncc12 [Example 317] and CCc1c(Nc2nc(-c3ccc(C(=O)NCC(C)C)cc3)nn2C)ccc2[nH]ncc12 [Example 320] cannot be ordered by pIC50: > 6.52 for the first, > 6.52 for the second.

CCc1c(Nc2nc(-c3ccc(C(=O)NC(C)C)cc3)nn2C)ccc2[nH]ncc12 [Example 318] and CCNC(=O)c1ccc(-c2nc(Nc3ccc4[nH]ncc4c3CC)n(C)n2)cc1 [Example 323] cannot be ordered by pIC50: > 6.52 for the first, > 6.52 for the second.

CCc1c(Nc2nc(-c3ccc(C(=O)NCC(C)(C)C)cc3)nn2C)ccc2[nH]ncc12 [Example 321] and CCc1c(Nc2nc(-c3ccc(C(=O)NC(C)C(F)(F)F)cc3)nn2C)ccc2[nH]ncc12 (stereo not drawn) [Example 322] cannot be ordered by pIC50: > 6.52 for the first, > 6.52 for the second.

Compared with CCNC(=O)c1ccc(-c2nc(Nc3ccc4[nH]ncc4c3)n(C)n2)cc1 [Example 324], CCNC(=O)c1ccc(-c2nc(Nc3ccc4[nH]ncc4c3)n(C)n2)cc1Cl [Example 325] is lower in pIC50: > 6.52 for the first, 5.52 to 6.52 for the second. The first is the more potent here.

CCNC(=O)c1ccc(-c2nc(Nc3ccc4[nH]ncc4c3)n(C)n2)cc1F [Example 326] and CCNC(=O)c1ccc(-c2nc(Nc3ccc4[nH]ncc4c3)n(C)n2)c(Cl)c1 [Example 327] cannot be ordered by pIC50: > 6.52 for the first, > 6.52 for the second.

First: COc1cc(-c2nc(Nc3ccc4[nH]ncc4c3C)n(C)n2)ccc1C(=O)NCCN(C)C [Example 329]
Second: COc1cc(-c2nc(Nc3ccc4[nH]ncc4c3F)n(C)n2)ccc1C(=O)NC(C)(C)C [Example 336]
The pIC50 of the first is lower: 5.00 to 5.52 for the first, > 6.52 for the second.

Compared with COc1cc(-c2nc(Nc3cnc4[nH]ncc4c3)n(C)n2)ccc1C(=O)NCC(F)(F)F [Example 330], COc1cc(-c2nc(Nc3cnc4[nH]ncc4c3)n(C)n2)ccc1C(=O)NC1CC1 [Example 332] is lower in pIC50: > 6.52 for the first, 5.00 to 5.52 for the second.

Compared with COc1cc(-c2nc(Nc3cc4cn[nH]c4cc3C)n(C)n2)ccc1C(=O)NCC(F)(F)F [Example 335], COCCn1nc(-c2ccc(C(=O)NCC(F)(F)F)c(C)c2)nc1Nc1ccc2[nH]ncc2c1C1CC1 [Example 337] is higher in pIC50: < 5.00 for the first, > 6.52 for the second. The second is the more potent here.

First: Cn1ccc(NC(=O)c2ccc(-c3nc(Nc4ccc5[nH]ncc5c4C4CC4)n(C)n3)cc2)n1 [Example 339]
Second: CCNC(=O)N1CC=C(c2nc(Nc3ccc4[nH]ncc4c3C3CC3)n(C)n2)CC1 [Example 341, 4-[5-[(4-cyclopropyl-1H-indazol-5-yl)amino]-1-methyl-1,2,4-triazol-3-yl]-N-ethyl-3,6-dihydro-2H-pyridine-1-carboxamide]
The pIC50 of the first is higher: > 6.52 for the first, 5.52 to 6.52 for the second.

With CCNC(=O)N1CCC(c2nc(Nc3ccc4[nH]ncc4c3C3CC3)n(C)n2)CC1 [Example 340, 4-[5-[(4-cyclopropyl-1H-indazol-5-yl)amino]-1-methyl-1,2,4-triazol-3-yl]-N-ethyl-piperidine-1-carboxamide] the pIC50 was < 5.00.
